In the NIST ThermoML archive (doi:10.1021/je030147g):

Legend:
[1] = refractive index (Na D-line) (dimensionless); xn = mol fraction of the nth substance listed; conditions: 101.33 kPa, Liquid
[2] = xn = mol fraction of the nth substance listed; conditions: 101.33 kPa, Liquid

CCCCN(CCCC)CCCC [tributylamine] + CCN(CC)CC
Conditions	mass density, 298.15 K [kg/m3]	mass density, 303.15 K [kg/m3]	mass density, 308.15 K [kg/m3]	refractive index, 298.15 K	refractive index, 303.15 K	refractive index, 308.15 K	speed of sound, 298.15 K [m/s]	viscosity, 298.15 K [mPa·s]	viscosity, 303.15 K [mPa·s]	viscosity, 308.15 K [mPa·s]
[1], x1 = 0.1072	–	–	–	1.4052	1.4031	1.4012	–	–	–	–
[1], x1 = 0.2039	–	–	–	1.4104	1.4079	1.4054	–	–	–	–
[1], x1 = 0.3083	–	–	–	1.4131	1.4116	1.4102	–	–	–	–
[1], x1 = 0.4066	–	–	–	1.4164	1.4144	1.4122	–	–	–	–
[1], x1 = 0.5029	–	–	–	1.4208	1.4178	1.4148	–	–	–	–
[1], x1 = 0.5905	–	–	–	1.4218	1.4194	1.4169	–	–	–	–
[1], x1 = 0.6928	–	–	–	1.4238	1.4213	1.4189	–	–	–	–
[1], x1 = 0.7914	–	–	–	1.4256	1.423	1.4204	–	–	–	–
[1], x1 = 0.8942	–	–	–	1.4265	1.4241	1.4217	–	–	–	–
[1], x1 = 1	–	–	–	1.4276	1.4255	1.4228	–	–	–	–
[2], x1 = 0.1072	732	727.3	722.8	–	–	–	1143	0.433	0.411	0.388
[2], x1 = 0.2039	739.2	734.6	730.2	–	–	–	1160	0.491	0.464	0.438
[2], x1 = 0.3083	745.9	741.4	737.1	–	–	–	1179	0.567	0.533	0.499
[2], x1 = 0.4066	751.5	747.2	742.9	–	–	–	1196	0.643	0.602	0.561
[2], x1 = 0.5029	756.4	752.2	747.9	–	–	–	1210	0.719	0.672	0.625
[2], x1 = 0.5905	760.2	756	751.8	–	–	–	1221	0.801	0.746	0.688
[2], x1 = 0.6928	763.7	759.5	755.4	–	–	–	1232	0.899	0.833	0.767
[2], x1 = 0.7914	767.1	763	758.9	–	–	–	1236	1.003	0.923	0.844
[2], x1 = 0.8942	770.6	766.5	762.4	–	–	–	1246	1.118	1.026	0.934
[2], x1 = 1	773.9	769.2	765.7	–	–	–	1262	1.239	1.123	1.028
